Source: publication PMC6354011 (Scientific Reports, 2019)
“And” between values parts separate entries of the source, which are not always exact repeats. Equal values may be shown once. Read-outs that look alike come from different tables or passages of the source.

Assays:
[1] = biological target: T1, Electric eel acetylcholinesterase (AChE, EC 3.1.1.7) (Electrophorus electricus, UniProt O42275); test: biochemical; settings: for AChE % inhibition: single read
T1 construct: purchased Sigma-Aldrich (USA)
T1 sequence (O42275 24-633): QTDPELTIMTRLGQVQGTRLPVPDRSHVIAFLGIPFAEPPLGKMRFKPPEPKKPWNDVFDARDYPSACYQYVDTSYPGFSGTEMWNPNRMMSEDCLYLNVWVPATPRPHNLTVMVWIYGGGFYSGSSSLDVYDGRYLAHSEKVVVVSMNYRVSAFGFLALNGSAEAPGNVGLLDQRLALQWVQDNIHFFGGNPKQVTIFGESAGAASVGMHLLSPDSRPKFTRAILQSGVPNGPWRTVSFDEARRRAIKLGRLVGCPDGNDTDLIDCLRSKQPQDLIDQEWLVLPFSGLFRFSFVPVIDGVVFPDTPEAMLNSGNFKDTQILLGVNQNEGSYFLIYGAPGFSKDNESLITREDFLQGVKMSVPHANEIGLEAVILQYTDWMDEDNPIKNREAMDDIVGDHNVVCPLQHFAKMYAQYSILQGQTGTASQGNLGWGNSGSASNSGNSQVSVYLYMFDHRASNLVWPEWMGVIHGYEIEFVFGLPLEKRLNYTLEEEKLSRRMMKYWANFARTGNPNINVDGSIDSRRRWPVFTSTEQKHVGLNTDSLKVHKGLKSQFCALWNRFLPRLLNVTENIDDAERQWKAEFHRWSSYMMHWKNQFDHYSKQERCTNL
Source text: (§1) Ellman’s colorimetric method with minor modification was employed in the determination of AChE and BChE inhibitory activities. Electric eel acetylcholinesterase (AChE, EC 3.1.1.7), equine serum butyrylcholinesterase (BChE, EC 3.1.1.8), 5,5′-Dithiobis(2-nitrobenzoic acid) (DTNB) and sodium phosphate dibasic (Na2HPO4) were purchased from Sigma-Aldrich (USA). S-butyrylthiocholine chloride (BTCC) from Sigma-Aldrich (Switzerland), acetylthiocholine iodide (ATCI) from Sigma-Aldrich (United Kingdom) and sodium phosphate monobasic (NaH2PO4) from Sigma-Aldrich (Germany) were purchased. […] Ethanol was used to replace the sample as a control in this assay.

[2] = biological target: T2, equine serum butyrylcholinesterase (BChE, EC 3.1.1.8) (Equus caballus, UniProt P81908); test: biochemical; format: biochemical; settings: for BChE % inhibition: single read
T2 construct: equine serum butyrylcholinesterase (BChE, EC 3.1.1.8); purchased Sigma-Aldrich (USA); host or cells: equine serum
T2 sequence (P81908 whole entry): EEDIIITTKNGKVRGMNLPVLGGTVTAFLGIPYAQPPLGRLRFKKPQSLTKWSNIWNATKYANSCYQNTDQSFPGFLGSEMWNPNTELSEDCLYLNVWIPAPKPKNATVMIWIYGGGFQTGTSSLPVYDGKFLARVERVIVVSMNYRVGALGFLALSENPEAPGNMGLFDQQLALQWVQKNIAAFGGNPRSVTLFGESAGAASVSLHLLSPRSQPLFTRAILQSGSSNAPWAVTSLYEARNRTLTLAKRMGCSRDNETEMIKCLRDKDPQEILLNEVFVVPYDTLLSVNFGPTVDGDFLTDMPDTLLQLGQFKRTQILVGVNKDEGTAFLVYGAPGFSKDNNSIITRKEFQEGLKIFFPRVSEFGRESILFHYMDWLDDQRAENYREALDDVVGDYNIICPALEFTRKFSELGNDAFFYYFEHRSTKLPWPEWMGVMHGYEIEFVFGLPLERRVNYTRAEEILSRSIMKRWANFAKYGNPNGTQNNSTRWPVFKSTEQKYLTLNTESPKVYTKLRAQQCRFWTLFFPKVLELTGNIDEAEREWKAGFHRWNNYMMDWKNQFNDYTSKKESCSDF
Source text: as §1

[3] = mean ± SD, n = 3, read-out: IC50 (µM) AChE
[4] = mean ± SD, n = 3, read-out: IC50 (µM) BChE

**Q.** `Cc1cccn2cc(-c3ccc(Cl)c(Cl)c3)nc12` [Compound 2k, 2-(3,4-dichlorophenyl)-8-methylimidazo[1,2-a]pyridine] was tested. Which IC50 [1, 3] did it give?
**A.** The IC50 was greater than 2000 µM.

**Q.** What about the IC50 ([2]; N = 3, unit not given (µg/mL scale), read-out: BChE IC50, Tukey HSD homogeneous subsets (group mean) (converted)) of the same compound?
**A.** The IC50 was 197 µM.

**Q.** What about the IC50 ([2]; average of three reads, read-out: BChE IC50 (µM) Average) of the same compound?
**A.** The IC50 was 191 µM.

**Q.** What about the IC50 ([2]; average of three reads, read-out: BChE IC50 (µg/mL) Average (converted)) of the same compound?
**A.** The IC50 was 191 µM.

**Q.** And the BChE % inhibition ([2]; conc 50 (µg/mL))?
**A.** Its BChE % inhibition is 44.12% and 38.16% and 45.75%.

**Q.** And the BChE % inhibition ([2]; conc 100 (µg/mL))?
**A.** Its BChE % inhibition is 66.91% and 74.50%.

**Q.** And the BChE % inhibition ([2]; conc 150 (µg/mL))?
**A.** Its BChE % inhibition is 80.47% and 68.54% and 70.16%.

**Q.** What about the BChE % inhibition ([2]; conc 200 (µg/mL)) of the same compound?
**A.** The BChE % inhibition was 146.65% and 115.19%.

**Q.** And the IC50 ([2]; first read, read-out: BChE IC50 (µM) First read)?
**A.** Its IC50 is 225 µM.

**Q.** And the IC50 ([2]; first read, read-out: BChE IC50 (µg/mL) First read (converted))?
**A.** Its IC50 is 224 µM.

**Q.** And the IC50 [2, 4]?
**A.** Its IC50 is 191 ± 29 µM.

**Q.** What about the IC50 ([2]; second read, read-out: BChE IC50 (µM) Second read) of the same compound?
**A.** The IC50 was 177 µM.

**Q.** What about the IC50 ([2]; second read, read-out: BChE IC50 (µg/mL) Second read (converted)) of the same compound?
**A.** Its IC50 is 176 µM.

**Q.** And the IC50 ([2]; third read, read-out: BChE IC50 (µM) Third read)?
**A.** The IC50 was 172 µM.

**Q.** What about the IC50 ([2]; third read, read-out: BChE IC50 (µg/mL) Third read (converted)) of the same compound?
**A.** Its IC50 is 171 µM.

**Q.** Which results are given for `Clc1cccn2cc(-c3ccc(-c4ccccc4)cc3)nc12` [Compound 2i, 2-([1,1′-biphenyl]-4-yl)-8-chloroimidazo[1,2-a]pyridine]?
**A.** IC50 ([1]; average of three reads, read-out: AChE IC50 (µM) Average): 253 µM; IC50 ([1]; average of three reads, read-out: AChE IC50 (µg/mL) Average (converted)): 253 µM; AChE % inhibition ([1]; conc 50 (µg/mL)): 10.30% and 14.24% and 6.35%; AChE % inhibition ([1]; conc 75 (µg/mL)): 37.90% and 58.60% and 35.60%; AChE % inhibition ([1]; conc 100 (µg/mL)): 49.40% and 76.34% and 66.48%; AChE % inhibition ([1]; conc 125 (µg/mL)): 81.60% and 94.74% and 74.70%; AChE % inhibition ([1]; conc 150 (µg/mL)): 92.44% and 89.16% and 84.56%; AChE % inhibition ([1]; conc 200 (µg/mL)): 97.37% and 103.61% and 101.97%; IC50 ([1]; first read, read-out: AChE IC50 (µM) First read): 269 µM; IC50 ([1]; first read, read-out: AChE IC50 (µg/mL) First read (converted)): 268 µM; IC50 [1, 3]: 253 ± 25 µM; IC50 ([1]; second read, read-out: AChE IC50 (µM) Second read): 225 µM; IC50 ([1]; second read, read-out: AChE IC50 (µg/mL) Second read (converted)): 224 µM; IC50 ([1]; third read, read-out: AChE IC50 (µM) Third read): 266 µM; IC50 ([1]; third read, read-out: AChE IC50 (µg/mL) Third read (converted)): 265 µM; IC50 [2, 4]: > 2000 µM
